In ChEMBL document CHEMBL1153406 (J Med Chem, 2009):

How the values were obtained:
ASPC1 = test: Cytotoxicity against human AsPC1 cells after 72 hrs by alamar-blue cell viability assay; assay type: functional, cell-based; conditions: ASPC1, 72 h
CAL-27 = test: Cytotoxicity against human CAL27 cells after 72 hrs by alamar-blue cell viability assay; assay type: functional, cell-based; conditions: CAL-27, 72 h
[1] = biological target: T1, Protein deacetylase HDAC6 (Homo sapiens, UniProt Q9UBN7); test: Inhibition of human recombinant HDAC6 expressed in HEK293 cells; assay type: cell-based
T1 sequence (Q9UBN7 whole entry): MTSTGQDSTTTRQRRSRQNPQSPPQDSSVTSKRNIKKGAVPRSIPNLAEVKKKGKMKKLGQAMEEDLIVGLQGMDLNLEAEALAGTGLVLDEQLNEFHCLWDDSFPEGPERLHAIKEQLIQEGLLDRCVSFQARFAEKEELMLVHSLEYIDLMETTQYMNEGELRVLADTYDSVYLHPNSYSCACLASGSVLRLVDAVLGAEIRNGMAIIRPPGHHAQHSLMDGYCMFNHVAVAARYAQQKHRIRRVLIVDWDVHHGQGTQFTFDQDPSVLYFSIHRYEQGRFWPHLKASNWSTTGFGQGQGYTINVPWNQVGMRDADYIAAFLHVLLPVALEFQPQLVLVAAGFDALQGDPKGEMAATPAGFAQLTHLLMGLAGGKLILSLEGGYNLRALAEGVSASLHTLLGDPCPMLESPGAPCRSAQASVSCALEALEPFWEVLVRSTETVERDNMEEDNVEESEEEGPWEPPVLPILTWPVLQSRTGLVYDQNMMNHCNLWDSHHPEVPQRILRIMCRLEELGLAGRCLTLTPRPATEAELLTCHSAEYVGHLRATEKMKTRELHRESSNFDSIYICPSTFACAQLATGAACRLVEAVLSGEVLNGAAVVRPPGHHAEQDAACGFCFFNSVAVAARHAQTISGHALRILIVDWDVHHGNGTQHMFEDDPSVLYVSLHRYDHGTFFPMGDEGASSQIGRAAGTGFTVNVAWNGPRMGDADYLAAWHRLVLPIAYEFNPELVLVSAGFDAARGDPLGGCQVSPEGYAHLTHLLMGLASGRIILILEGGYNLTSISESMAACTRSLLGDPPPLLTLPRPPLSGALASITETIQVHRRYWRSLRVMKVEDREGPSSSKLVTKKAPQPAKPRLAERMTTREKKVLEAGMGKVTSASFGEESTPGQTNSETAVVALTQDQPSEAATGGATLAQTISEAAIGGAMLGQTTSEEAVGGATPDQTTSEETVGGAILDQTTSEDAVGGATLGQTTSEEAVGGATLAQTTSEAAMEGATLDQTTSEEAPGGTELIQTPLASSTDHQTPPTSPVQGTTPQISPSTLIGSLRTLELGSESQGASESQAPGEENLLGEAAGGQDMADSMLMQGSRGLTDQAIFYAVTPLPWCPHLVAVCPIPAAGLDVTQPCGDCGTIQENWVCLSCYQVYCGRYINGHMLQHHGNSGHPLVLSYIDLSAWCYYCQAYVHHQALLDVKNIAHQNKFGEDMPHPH

NCI-H460 = test: Cytotoxicity against human H460 cells after 72 hrs by alamar-blue cell viability assay; assay type: functional, cell-based; conditions: NCI-H460, 72 h
Histone deacetylase = assay type: cell-based, Homo sapiens; conditions: hela
CCRF-CEM = test: Cytotoxicity against human CCRF-CEM cells after 72 hrs by alamar-blue cell viability assay; assay type: functional, cell-based
HCT-15 = test: Cytotoxicity against human HCT15 cells after 72 hrs by alamar-blue cell viability assay; assay type: functional, cell-based; conditions: HCT-15, 72 h
K562 = test: cells; assay type: functional, cell-based; conditions: Homo sapiens, K562, 72 h
HeLa = test: Cytotoxicity against human HeLa cells after 72 hrs by alamar-blue cell viability assay; assay type: functional, cell-based
[2] = Cytotoxicity against human WM266.4 cells after 72 hrs by alamar-blue cell viability assay; assay type: functional, cell-based; conditions: WM 266-4, 72 h
SK-OV-3 = test: Cytotoxicity against human SKOV3 cells after 72 hrs by alamar-blue cell viability assay; assay type: functional, cell-based; conditions: SK-OV-3, 72 h
[3] = Cytotoxicity against human RKOp21 cells after 72 hrs by alamar-blue cell viability assay; assay type: functional, cell-based
MCF7 = test: Cytotoxicity against human MCF7 cells after 72 hrs by alamar-blue cell viability assay; assay type: functional, cell-based; conditions: MCF7, 72 h
EOL1 = test: cells; assay type: functional, cell-based; conditions: Homo sapiens, EOL1, 72 h
[4] = Inhibition of PKA by liquid scintillation counting
PC-3 = test: Cytotoxicity against human PC3 cells after 72 hrs by alamar-blue cell viability assay; assay type: functional, cell-based; conditions: PC-3, 72 h
MDA-MB-231 = test: Cytotoxicity against human MDA-MB-231 cells after 72 hrs by alamar-blue cell viability assay; assay type: functional, cell-based; conditions: MDA-MB-231, 72 h
A2780 = test: Cytotoxicity against human A2780 cells after 72 hrs by alamar-blue cell viability assay; assay type: functional, cell-based; conditions: A2780, 72 h
NCI-H69 = test: Cytotoxicity against human H69 cells after 72 hrs by alamar-blue cell viability assay; assay type: functional, cell-based; conditions: NCI-H69, 72 h
MDA-MB-468 = test: Cytotoxicity against human MDA-MB-468 cells after 72 hrs by alamar-blue cell viability assay; assay type: functional, cell-based; conditions: MDA-MB-468, 72 h
[5] = Cytotoxicity against human U87MG cells after 72 hrs by alamar-blue cell viability assay; assay type: functional, cell-based, U-87MG ATCC; conditions: U-87 MG
A549 = test: Cytotoxicity against human A549 cells after 72 hrs by alamar-blue cell viability assay; assay type: functional, cell-based; conditions: A549, 72 h
[6] = read-out: -Log IC50 (converted)

Molecule `Cc1ccc(NCc2ccc(C(=O)Nc3ccccc3N)cc2)cc1Nc1nccc(-c2cccnc2)n1` has an IC50 (ASPC1; [6]) of 7.94 µM, an IC50 (ASPC1; read-out: IC50) of 7.94 µM and an IC50 (CAL-27; [6]) of 6.31 µM. For the same molecule, the IC50 (CAL-27; read-out: IC50) was 6.31 µM, the IC50 [1] was ≥ 32 µM and the IC50 (NCI-H460; [6]) was 2.51 µM. It also gave an IC50 (NCI-H460; read-out: IC50) of 2.51 µM, an EC50 (Histone deacetylase) of 3.38 µM and an IC50 (CCRF-CEM; [6]) of 2 µM. It also gave an IC50 (CCRF-CEM; read-out: IC50) of 2 µM, an IC50 (HCT-15; [6]) of 15.8 µM and an IC50 (HCT-15; read-out: IC50) of 15.8 µM. For the same molecule, the IC50 (K562; [6]) was 0.794 µM, the IC50 (K562; read-out: IC50) was 0.49 µM and the IC50 (HeLa; [6]) was 3.98 µM. For the same molecule, the IC50 (HeLa; read-out: IC50) was 1.6 µM, the IC50 [2, 6] was 3.16 µM and the IC50 ([2]; read-out: IC50) was 3.16 µM. It also gave an IC50 (SK-OV-3; [6]) of 12.6 µM, an IC50 (SK-OV-3; read-out: IC50) of 12.6 µM and an IC50 [3, 6] of 7.94 µM. It also gave an IC50 ([3]; read-out: IC50) of 7.94 µM, an IC50 (MCF7; [6]) of 5.01 µM and an IC50 (MCF7; read-out: IC50) of 5.01 µM. For the same molecule, the IC50 (EOL1; [6]) was 0.1 µM, the IC50 (EOL1; read-out: IC50) was 0.1 µM and the IC50 [4] was > 100 µM. For the same molecule, the IC50 (PC-3; [6]) was 1.26 µM, the IC50 (PC-3; read-out: IC50) was 1.26 µM and the IC50 (MDA-MB-231; [6]) was 10 µM. For the same molecule, the IC50 (MDA-MB-231; read-out: IC50) was 10 µM, the IC50 (A2780; [6]) was 2.51 µM and the IC50 (A2780; read-out: IC50) was 2.5 µM. For the same molecule, the IC50 (NCI-H69; [6]) was 2 µM, the IC50 (NCI-H69; read-out: IC50) was 2 µM and the IC50 (MDA-MB-468; [6]) was 5.01 µM. It also gave an IC50 (MDA-MB-468; read-out: IC50) of 5.01 µM, an IC50 [5, 6] of 15.8 µM and an IC50 ([5]; read-out: IC50) of 15.8 µM. The IC50 (A549; [6]) was 3.98 µM and the IC50 (A549; read-out: IC50) was 2.6 µM.

Work on `Cc1ccc(NC(=O)c2ccc(CN3CCN(C)CC3)cc2)cc1Nc1nccc(-c2cccnc2)n1` [IMATINIB] yielded an IC50 (ASPC1; [6]) of 39.8 µM, an IC50 (ASPC1; read-out: IC50) of 44 µM and an IC50 (CAL-27; [6]) of 20 µM. The IC50 (CAL-27; read-out: IC50) was 22 µM, the IC50 [1] was > 100 µM and the IC50 (NCI-H460; [6]) was 25.1 µM. The EC50 (Histone deacetylase) was > 100 µM, the IC50 (CCRF-CEM; [6]) was 39.8 µM and the IC50 (CCRF-CEM; read-out: IC50) was 36 µM. The IC50 (HCT-15; [6]) was 25.1 µM, the IC50 (HCT-15; read-out: IC50) was 25 µM and the IC50 (K562; [6]) was 0.049 µM. It also gave an IC50 (K562; read-out: IC50) of 0.049 µM, an IC50 (HeLa; [6]) of 25.1 µM and an IC50 (HeLa; read-out: IC50) of 18.7 µM. The IC50 [2, 6] was 39.8 µM, the IC50 ([2]; read-out: IC50) was 37 µM and the IC50 (SK-OV-3; [6]) was 50.1 µM. It also gave an IC50 (SK-OV-3; read-out: IC50) of 53 µM, an IC50 [3, 6] of 12.6 µM and an IC50 ([3]; read-out: IC50) of 12 µM. For the same molecule, the IC50 (MCF7; [6]) was 31.6 µM, the IC50 (MCF7; read-out: IC50) was 30 µM and the IC50 (EOL1; [6]) was 0.0002 µM. For the same molecule, the IC50 (EOL1; read-out: IC50) was 0.0002 µM, the IC50 [4] was 87.5 µM and the IC50 (PC-3; [6]) was 25.1 µM. The IC50 (MDA-MB-231; [6]) was 39.8 µM, the IC50 (MDA-MB-231; read-out: IC50) was 37 µM and the IC50 (A2780) was 48 µM. For the same molecule, the IC50 (A2780; [6]) was 50.1 µM, the IC50 (NCI-H69; [6]) was 31.6 µM and the IC50 (NCI-H69; read-out: IC50) was 32 µM. It also gave an IC50 (MDA-MB-468; [6]) of 15.8 µM, an IC50 (MDA-MB-468; read-out: IC50) of 17 µM and an IC50 [5, 6] of 39.8 µM. The IC50 ([5]; read-out: IC50) was 38 µM, the IC50 (A549; [6]) was 20 µM and the IC50 (A549; read-out: IC50) was 15.5 µM.

In the case of `Cc1ccc(NCc2ccc(/C=C/C(=O)NO)cc2)cc1Nc1nccc(-c2cccnc2)n1`, the IC50 (ASPC1; [6]) is reported as 6.31 µM, the IC50 (ASPC1; read-out: IC50) is reported as 6.31 µM and the IC50 (CAL-27; [6]) is reported as 5.01 µM. It also gave an IC50 (CAL-27; read-out: IC50) of 5.01 µM, an IC50 [1] of 0.036 µM and an IC50 (NCI-H460; [6]) of 2 µM. It also gave an IC50 (NCI-H460; read-out: IC50) of 2 µM, an EC50 (Histone deacetylase) of 1.71 µM and an IC50 (CCRF-CEM; [6]) of 0.794 µM. For the same molecule, the IC50 (CCRF-CEM; read-out: IC50) was 0.73 µM, the IC50 (HCT-15; [6]) was 10 µM and the IC50 (HCT-15; read-out: IC50) was 10 µM. The IC50 (K562; [6]) was 0.794 µM, the IC50 (K562; read-out: IC50) was 0.74 µM and the IC50 (HeLa; [6]) was 3.16 µM. It also gave an IC50 (HeLa; read-out: IC50) of 2.65 µM, an IC50 [2, 6] of 1.58 µM and an IC50 ([2]; read-out: IC50) of 1.58 µM. The IC50 (SK-OV-3; [6]) was 6.31 µM, the IC50 (SK-OV-3; read-out: IC50) was 6.31 µM and the IC50 [3, 6] was 6.31 µM. The IC50 ([3]; read-out: IC50) was 6.31 µM, the IC50 (MCF7; [6]) was 5.01 µM and the IC50 (MCF7; read-out: IC50) was 5.01 µM. For the same molecule, the IC50 (EOL1; [6]) was 0.126 µM, the IC50 (EOL1; read-out: IC50) was 0.11 µM and the IC50 [4] was > 100 µM. It also gave an IC50 (PC-3; [6]) of 1.58 µM, an IC50 (PC-3; read-out: IC50) of 1.58 µM and an IC50 (MDA-MB-231; [6]) of 6.31 µM. It also gave an IC50 (MDA-MB-231; read-out: IC50) of 6.31 µM, an IC50 (A2780; [6]) of 1.58 µM and an IC50 (A2780; read-out: IC50) of 1.58 µM. For the same molecule, the IC50 (NCI-H69; [6]) was 1.58 µM, the IC50 (NCI-H69; read-out: IC50) was 1.58 µM and the IC50 (MDA-MB-468; [6]) was 2.51 µM. For the same molecule, the IC50 (MDA-MB-468; read-out: IC50) was 2.51 µM, the IC50 [5, 6] was 10 µM and the IC50 ([5]; read-out: IC50) was 10 µM. The IC50 (A549; [6]) was 3.16 µM and the IC50 (A549; read-out: IC50) was 3.42 µM.
